What was measured:
Bacillus megaterium = settings: LL-37 mixed in a ratio of 3:1 with vernix lipids; cited from earlier work
Caco-2 cells = test: Caco-2 BCFA uptake experiment (18 h incubation, GC/MS of cell lipids); type: in vitro ADME, human; settings: BCFA-treated Caco-2 cells
Method: Twenty-four hours prior to treatment with BCFA, DMEM was replaced with MEM (Minimum Essential Medium). […] Two others served as controls. Cells were incubated for 18 hours, after which media was removed and the cells were thoroughly and carefully washed three times. Cell lipids were extracted and FAME prepared for GC/MS.

## LL-37: antimicrobial vernix peptide (LLGDFFRKSKEKIGKEFKRIVQRIKDFLRNLVPRTES; Antibacterial peptide LL-37; UniProt P49913 134-170, looked up)
Bacillus megaterium
  growth of Bacillus megaterium, peptide mixed with vernix lipids: further growth inhibition

## CC(C)CCCCCCCCCCCCCCCCC(=O)O [iso-20:0, iso-eicosanoic acid]
Caco-2 cells; MAG fraction
  incorporation of BCFA into monoacylglycerols (MAG): favoring
Caco-2 cells; PL fraction
  incorporation of BCFA into phospholipids (PL): selection against

From US10258587B2, “Branched chain fatty acids for prevention or treatment of gastrointestinal disorders” (priority 2007, dated 2019)
